Laboratory results from patent publication US20250261636A1, “QUATERNARY AMMONIUM SANITIZING COMPOSITION” (ECOLAB USA INC., priority 2020, published 2025).
Where “and” joins values, the source holds several entries; their conditions need not be identical. Equal entries are not always repeated.

What was measured:
[1] = test system: Escherichia coli ATCC 11229; assay: AOAC Method 960.09 Germicidal and Detergent Sanitizing Action of Disinfectants, food contact sanitizing suspension test; assay type: cell-based; conditions: for Log Reduction: per replicate
Method: (§1) The microbial efficacy of the multipurpose sanitizing composition was evaluated for food contact applications. The purpose of the testing is to determine the efficacy of compositions used for sanitizing food contact surfaces, which in the evaluations were pre-cleaned, non-porous surfaces using AOAC Method 960.09 Germicidal and Detergent Sanitizing Action of Disinfectants. […] The test organisms included Staphylococcus aureus ATCC 6538 and Escherichia coli ATCC 11229.
(§2) The pH was adjusted by use of a polycarboxylic acid (unless otherwise noted, such as the polycarboxylate citrate tested at pH 8). In this screening test pH 9, 8, 7, 5, 4, and 3 were tested. “NT” indicates a condition was “Not Tested.”

[2] = test system: Staphylococcus aureus ATCC 6538; assay: as above; assay type: cell-based; conditions: 30 ppm, pH 5, 120° F.
Method: as §1, §2

[3] = 30 ppm, pH 5, 120° F., listed as Stepan Quat

**Q.** Which results are given for “didecyl dimethyl ammonium methyl sulfonate/sulfate [Quat]”?
**A.** Average Log Reduction ([1]; 30 ppm, pH 5, 120° F.): 4.93 log; Log Reduction [1, 3]: 4.85 log and 5.02 log; CFU - Dilution 1E−01 [1, 3]: 63 CFU and 46 CFU; CFU/mL [1, 3]: 6.8E+02 CFU/mL and 4.6E+02 CFU/mL; Log [1, 3]: 2.83 and 2.67; log reduction S. aureus (ATCC 6538) [2]: 6.69 log

**Q.** Which “Average Log Reduction” value ([1]; 30 ppm, pH 5, 120° F.) does the source give for `CCCCCCCCCC[N+](C)(C)CCCCCCCCCC.[Cl-]` [Bardac 2250, didecyl dimethyl ammonium chloride] here?
**A.** 6.83 log

**Q.** And the “Average Log Reduction” value ([1]; 30 ppm, pH 7, 120° F.)?
**A.** 3.33 log

**Q.** What about the “CFU - Dilution 1E−01” value ([1]; 30 ppm, pH 7, 120° F.) of the same compound?
**A.** TNTC

**Q.** And the “CFU - Dilution 1E−02” value ([1]; 30 ppm, pH 7, 120° F.)?
**A.** TNTC

**Q.** What about the CFU/mL ([1]; 30 ppm, pH 7, 120° F.) of the same compound?
**A.** 3.00E+04 CFU/mL

**Q.** And the “Log Reduction” value ([1]; 30 ppm, pH 7, 120° F.)?
**A.** 3.33 log

**Q.** What about the “Average Log Reduction” value ([1]; 30 ppm, pH 9, 120° F.) of the same compound?
**A.** 3.33 log

**Q.** And the “CFU - Dilution 1E−01” value ([1]; 30 ppm, pH 9, 120° F.)?
**A.** TNTC

**Q.** What about the “CFU - Dilution 1E−02” value ([1]; 30 ppm, pH 9, 120° F.) of the same compound?
**A.** TNTC

**Q.** And the CFU/mL ([1]; 30 ppm, pH 9, 120° F.)?
**A.** 3.00E+04 CFU/mL

**Q.** What about the Log ([1]; 30 ppm, pH 9, 120° F.) of the same compound?
**A.** 4.48

**Q.** And the “Log Reduction” value ([1]; 30 ppm, pH 9, 120° F.)?
**A.** 3.33 log

**Q.** What about the “Average Log Reduction” value ([1]; 40 ppm, pH 7, 120° F.) of the same compound?
**A.** 5.02 log

**Q.** And the “Average Log Reduction” value ([1]; 40 ppm, pH 9, 120° F.)?
**A.** 4.63 log

**Q.** And the “CFU - Dilution 1E−01” value ([1]; 40 ppm, pH 9, 120° F.)?
**A.** 192 CFU and 120 CFU

**Q.** What about the “CFU - Dilution 1E−02” value ([1]; 40 ppm, pH 9, 120° F.) of the same compound?
**A.** 12 CFU and 14 CFU

**Q.** What about the CFU/mL ([1]; 40 ppm, pH 9, 120° F.) of the same compound?
**A.** 1.85E+03 CFU/mL and 1.22E+03 CFU/mL

**Q.** And the Log ([1]; 40 ppm, pH 9, 120° F.)?
**A.** 3.27 and 3.09

**Q.** And the “Log Reduction” value ([1]; 40 ppm, pH 9, 120° F.)?
**A.** 4.54 log and 4.72 log

**Q.** And the “log reduction E. coli (ATCC 11229)” value ([1]; 50 ppm, pH 7, 120° F.)?
**A.** 6.71 log

**Q.** What about the “log reduction S. aureus (ATCC 6538)” value [2] of the same compound?
**A.** 6.88 log
